Our source for the TGI values is PubChem BioAssay (NCI).

Each structure is given as a SMILES string.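 Exposure lasted 48 hours, with cells grown in 96-well plates and compounds tested at five concentrations. TGI is the concentration that stops growth completely.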 Bounds are passed on as bounds.

Test systems include SNB-75 CNS; UACC-257 melanoma; MOLT-4 leukemia; SF-295 CNS; HT29 colon; HOP-92 NSCLC; MALME-3M melanoma; COLO 205 colon; MDA-MB-435; BT-549 breast.
What all share (assay): NCI anticancer screen, dose series, 48 h

As to `O=C1NC2OC(C(O)CO)C(O)C2O1` (stereo not drawn), the TGI in the assay on SNB-75 CNS, with UACC-257 melanoma, in the assay on MOLT-4 leukemia, with SF-295 CNS, in the assay on HT29 colon and in the assay with HOP-92 NSCLC was above 100 µM in each case. Moreover, the TGI in the assay with MALME-3M melanoma and in the assay with COLO 205 colon was above 100 µM each time.

For `O=C1CSC(/C(=N/Nc2ccccc2)c2nc3ccccc3[nH]2)=N1`, the TGI was 97.6 µM in the assay on SNB-75 CNS; above 100 µM in the assay with UACC-257 melanoma; 58.5 µM with SF-295 CNS; above 100 µM with HT29 colon; 49.7 µM with HOP-92 NSCLC; above 100 µM with MALME-3M melanoma. In the assay with COLO 205 colon, this compound yielded a TGI above 100 µM.

Regarding `COc1cccc(/C=N/n2c(C)n[nH]c2=O)c1`, the TGI in the assay on SNB-75 CNS, in the assay with UACC-257 melanoma, with MOLT-4 leukemia, in the assay with MDA-MB-435, in the assay on SF-295 CNS and in the assay with HT29 colon was above 100 µM in each case. Further, the TGI with BT-549 breast, in the assay on MALME-3M melanoma and in the assay with COLO 205 colon was above 100 µM throughout.

In the case of `CC(C)CC(O)P(=O)(O)O` (stereo not drawn), the TGI with SNB-75 CNS, in the assay on UACC-257 melanoma, in the assay with MOLT-4 leukemia, in the assay with MDA-MB-435, with SF-295 CNS and with HT29 colon was above 100 µM in each case. Also, the TGI in the assay with COLO 205 colon was above 100 µM.

As to `CSc1sc2ccccc2[s+]1`, the TGI in the assay with SNB-75 CNS, in the assay on UACC-257 melanoma, in the assay with MOLT-4 leukemia, in the assay with SF-295 CNS, in the assay with HT29 colon and in the assay with HOP-92 NSCLC was above 100 µM in each case. For the same compound, the TGI in the assay on MALME-3M melanoma and with COLO 205 colon was above 100 µM each time.

In the case of `Nc1ccn(C2OC(CO)C(O)C2O)c(=O)c1` (stereo not drawn), the TGI in the assay with SNB-75 CNS is above 625 µM; in the assay with SF-295 CNS, above 625 µM; in the assay with HT29 colon it was above 625 µM; with HOP-92 NSCLC it was above 625 µM; with MALME-3M melanoma it was 365 µM; in the assay on COLO 205 colon, above 625 µM.

On to `CSc1ncnc2c1ncn2CCC#N`, for which the TGI with SNB-75 CNS, with UACC-257 melanoma, with MOLT-4 leukemia, in the assay with MDA-MB-435, in the assay with SF-295 CNS and in the assay on HT29 colon was above 100 µM throughout. The TGI in the assay on HOP-92 NSCLC, with MALME-3M melanoma and in the assay on COLO 205 colon was above 100 µM throughout.

Consider `OCc1ccc(C2CC(c3ccco3)=NN2c2ccccc2)o1` (stereo not drawn), for which the TGI in the assay with SNB-75 CNS, with MOLT-4 leukemia, in the assay with SF-295 CNS, in the assay with HT29 colon, in the assay on MALME-3M melanoma and in the assay on COLO 205 colon was above 100 µM throughout.

In the case of `Oc1cccc(-c2nc3cc(F)ccc3s2)c1`, the TGI in the assay with SNB-75 CNS worked out at 39.4 µM; in the assay on UACC-257 melanoma, 34.3 µM; in the assay on MOLT-4 leukemia it was 59 µM; in the assay with MDA-MB-435, 58.5 µM; in the assay with SF-295 CNS it was 50.7 µM; with HT29 colon, 31.7 µM. Further, the TGI in the assay with BT-549 breast is 45.1 µM; in the assay with MALME-3M melanoma, 48.6 µM; in the assay with COLO 205 colon it was 30 µM.

As for `CC(C)(C)C(=O)CC1=Nc2ccccc2SC1(O)CC(=O)C(C)(C)C` (stereo not drawn), the TGI in the assay on UACC-257 melanoma is above 100 µM; in the assay with MOLT-4 leukemia it was 24.3 µM; in the assay on MDA-MB-435 it was 64.5 µM; in the assay on SF-295 CNS, 68.6 µM; in the assay on HT29 colon, 31.5 µM; in the assay on BT-549 breast, 51.1 µM. For the same compound, the TGI in the assay with MALME-3M melanoma is above 100 µM; with COLO 205 colon it was 29.8 µM.

Turning to `COc1cc2c3c(c1OC)C1(C=CC(=O)C=C1)C[C@H]3N(C)CC2`, the TGI in the assay with SNB-75 CNS, in the assay with UACC-257 melanoma, in the assay with MOLT-4 leukemia, in the assay on SF-295 CNS, in the assay on HT29 colon and in the assay with HOP-92 NSCLC was above 100 µM each time. In addition, the TGI in the assay on MALME-3M melanoma and in the assay with COLO 205 colon was above 100 µM throughout.

Turning to `Nc1ccc(S2(c3ccc(N)cc3)C=C(c3ccccc3)C(c3ccccc3)=C2)cc1`, the TGI with SNB-75 CNS is above 100 µM; with UACC-257 melanoma it was above 100 µM; with MOLT-4 leukemia, above 100 µM; in the assay with MDA-MB-435 it was above 71.3 µM; with SF-295 CNS, above 100 µM; with HT29 colon it was above 100 µM. Also, the TGI in the assay on HOP-92 NSCLC, in the assay on MALME-3M melanoma and in the assay on COLO 205 colon was above 100 µM in each case.

As for `CCC(=O)ONC(=O)Cn1ccc([N+](=O)[O-])n1`, the TGI in the assay with SNB-75 CNS, in the assay with UACC-257 melanoma, in the assay on MOLT-4 leukemia, with MDA-MB-435, in the assay on SF-295 CNS and in the assay on HT29 colon was above 100 µM in each case. Also, the TGI with HOP-92 NSCLC, in the assay on MALME-3M melanoma and in the assay on COLO 205 colon was above 100 µM throughout.

On to `Cn1c2ccccc2c(=O)c2cccc(C(=O)NC(CCCN=C(N)N)C(=O)O)c21` (stereo not drawn), for which the TGI in the assay on SNB-75 CNS, with UACC-257 melanoma, in the assay with MOLT-4 leukemia, in the assay on MDA-MB-435, with SF-295 CNS and in the assay on HT29 colon was above 100 µM in each case. Besides, the TGI with BT-549 breast, with MALME-3M melanoma and in the assay on COLO 205 colon was above 100 µM throughout.

On to `CC(=O)NC1c2ccccc2C(C)(C)C12CCC1(CC2)OCCO1` (stereo not drawn), for which the TGI in the assay with SNB-75 CNS, with UACC-257 melanoma, with MOLT-4 leukemia, in the assay on SF-295 CNS, in the assay on HT29 colon and with BT-549 breast was above 100 µM each time. Also, the TGI with MALME-3M melanoma and with COLO 205 colon was above 100 µM in each case.

For the compound `Cc1ccc(S(=O)(=O)C(C#N)c2nc3ccccc3nc2-n2ccnc2)cc1` (stereo not drawn), the TGI in the assay on SNB-75 CNS, in the assay with UACC-257 melanoma, in the assay on MOLT-4 leukemia, in the assay on SF-295 CNS, in the assay with HT29 colon and in the assay with HOP-92 NSCLC was above 100 µM in each case. The TGI with MALME-3M melanoma and in the assay on COLO 205 colon was above 100 µM throughout.
